Target: Cholinesterase (Homo sapiens, UniProt P06276)
Assay: Inhibition of human serum BChE using BTCh as substrate preincubated for 20 mins followed by substrate addition and measured for 3 mins by Ellman's method
Details: not given

Chain of Cholinesterase (P06276 whole entry): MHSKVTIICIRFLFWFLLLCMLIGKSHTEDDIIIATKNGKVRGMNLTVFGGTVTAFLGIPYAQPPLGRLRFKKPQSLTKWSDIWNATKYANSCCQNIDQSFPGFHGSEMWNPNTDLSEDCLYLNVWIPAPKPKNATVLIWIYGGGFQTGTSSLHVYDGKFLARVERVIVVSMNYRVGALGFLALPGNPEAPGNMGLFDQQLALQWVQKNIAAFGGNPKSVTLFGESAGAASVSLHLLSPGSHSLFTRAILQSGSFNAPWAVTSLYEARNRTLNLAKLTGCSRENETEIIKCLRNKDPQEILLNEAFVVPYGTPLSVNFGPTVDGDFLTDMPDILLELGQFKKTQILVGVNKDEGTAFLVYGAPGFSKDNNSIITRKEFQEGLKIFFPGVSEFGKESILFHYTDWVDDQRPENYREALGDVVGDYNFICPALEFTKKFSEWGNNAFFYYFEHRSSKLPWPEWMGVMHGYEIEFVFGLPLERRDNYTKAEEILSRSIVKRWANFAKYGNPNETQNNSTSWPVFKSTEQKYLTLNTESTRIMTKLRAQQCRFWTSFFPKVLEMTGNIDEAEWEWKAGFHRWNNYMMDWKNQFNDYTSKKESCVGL

Compound | IC50 [µM]
O=C(Nc1cc(-c2cn(CCNc3c4c(nc5ccccc35)CCCC4)nn2)ccn1)Nc1cccc2c1[C@H]1CCCCN1C2=O | 0.395
O=C(Nc1cccc(-c2cn(CCNc3c4c(nc5ccccc35)CCCC4)nn2)n1)Nc1cccc2c1C1CCCCN1C2=O (racemic) | 0.0211

System: Caco-2
Assay: Cytotoxicity against human Caco2 cells assessed as growth inhibition incubated for 48 hrs by Hoechst 33342 staining based assay
Assay type: cell-based
Details: Caco-2, 48 h

Compound | IC50 [µM]
O=C(Nc1cc(-c2cn(CCNc3c4c(nc5ccccc35)CCCC4)nn2)ccn1)Nc1cccc2c1[C@H]1CCCCN1C2=O | 8
O=C(Nc1cccc(-c2cn(CCNc3c4c(nc5ccccc35)CCCC4)nn2)n1)Nc1cccc2c1C1CCCCN1C2=O (racemic) | 24

System: Huh-7
Assay: Cytotoxicity against human HuH7 cells assessed as growth inhibition incubated for 48 hrs by Hoechst 33342 staining based assay
Assay type: cell-based
Details: Huh-7, 48 h

Compound | IC50 [µM]
O=C(Nc1cc(-c2cn(CCNc3c4c(nc5ccccc35)CCCC4)nn2)ccn1)Nc1cccc2c1[C@H]1CCCCN1C2=O | 3.5
O=C(Nc1cccc(-c2cn(CCNc3c4c(nc5ccccc35)CCCC4)nn2)n1)Nc1cccc2c1C1CCCCN1C2=O (racemic) | 18

System: MDA-MB-231
Assay: Cytotoxicity against human MDA-MB-231 cells assessed as growth inhibition incubated for 48 hrs by Hoechst 33342 staining based assay
Assay type: cell-based
Details: MDA-MB-231, 48 h

Compound | IC50 [µM]
O=C(Nc1cc(-c2cn(CCNc3c4c(nc5ccccc35)CCCC4)nn2)ccn1)Nc1cccc2c1[C@H]1CCCCN1C2=O | 2
O=C(Nc1cccc(-c2cn(CCNc3c4c(nc5ccccc35)CCCC4)nn2)n1)Nc1cccc2c1C1CCCCN1C2=O (racemic) | 17

System: PC-3
Assay: Cytotoxicity against human PC3 cells assessed as growth inhibition incubated for 48 hrs by Hoechst 33342 staining based assay
Assay type: cell-based
Details: PC-3, 48 h

Compound | IC50 [µM]
O=C(Nc1cc(-c2cn(CCNc3c4c(nc5ccccc35)CCCC4)nn2)ccn1)Nc1cccc2c1[C@H]1CCCCN1C2=O | 3
O=C(Nc1cccc(-c2cn(CCNc3c4c(nc5ccccc35)CCCC4)nn2)n1)Nc1cccc2c1C1CCCCN1C2=O (racemic) | 27

Target: Cyclin-dependent kinase 5/CDK5 activator 1 (Homo sapiens, UniProt Q00535)
Sequence (Q00535 whole entry): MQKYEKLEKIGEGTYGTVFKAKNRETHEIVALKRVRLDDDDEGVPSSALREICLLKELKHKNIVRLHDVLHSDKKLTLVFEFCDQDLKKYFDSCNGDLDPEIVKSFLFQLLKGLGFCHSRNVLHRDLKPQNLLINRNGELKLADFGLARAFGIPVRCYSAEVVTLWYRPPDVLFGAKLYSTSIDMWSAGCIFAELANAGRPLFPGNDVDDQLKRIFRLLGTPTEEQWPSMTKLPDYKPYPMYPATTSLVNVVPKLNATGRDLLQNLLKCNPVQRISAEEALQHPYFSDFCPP
Sequence (Q15078 whole entry, further chain): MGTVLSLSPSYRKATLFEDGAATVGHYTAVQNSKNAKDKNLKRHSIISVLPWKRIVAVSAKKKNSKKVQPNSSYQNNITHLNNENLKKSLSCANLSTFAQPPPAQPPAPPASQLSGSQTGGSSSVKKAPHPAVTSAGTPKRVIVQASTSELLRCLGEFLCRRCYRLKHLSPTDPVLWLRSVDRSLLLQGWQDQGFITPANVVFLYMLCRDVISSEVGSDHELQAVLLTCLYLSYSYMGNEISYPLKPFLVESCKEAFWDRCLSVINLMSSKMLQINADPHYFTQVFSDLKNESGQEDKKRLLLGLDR
Assay type: protein-complex assay
Details: not given

Compound | IC50 [µM]
C#CCOCc1ccnc(NC(=O)Nc2cccc3c2C2CCCCN2C3=O)c1 (racemic) | 0.15
C#CCCc1ccnc(NC(=O)Nc2cccc3c2C2CCCCN2C3=O)c1 (racemic) | 0.07
C#CCN(C)Cc1ccnc(NC(=O)Nc2cccc3c2C2CCCCN2C3=O)c1 (racemic) | 0.09
O=C(Nc1cc(-c2cn(CCNc3c4c(nc5ccccc35)CCCC4)nn2)ccn1)Nc1cccc2c1[C@H]1CCCCN1C2=O | 0.5
O=C(Nc1cccc(-c2cn(CCNc3c4c(nc5ccccc35)CCCC4)nn2)n1)Nc1cccc2c1C1CCCCN1C2=O (racemic) | 3.1

System: HCT-116
Assay: Cytotoxicity against human HCT116 cells assessed as growth inhibition incubated for 48 hrs by Hoechst 33342 staining based assay
Assay type: cell-based
Details: HCT-116, 48 h

Compound | IC50 [µM]
O=C(Nc1cc(-c2cn(CCNc3c4c(nc5ccccc35)CCCC4)nn2)ccn1)Nc1cccc2c1[C@H]1CCCCN1C2=O | 2.2
O=C(Nc1cccc(-c2cn(CCNc3c4c(nc5ccccc35)CCCC4)nn2)n1)Nc1cccc2c1C1CCCCN1C2=O (racemic) | 17

System: NCI-H727
Assay: Cytotoxicity against human NCI-H727 cells assessed as growth inhibition incubated for 48 hrs by Hoechst 33342 staining based assay
Assay type: cell-based
Details: NCI-H727, 48 h

Compound | IC50 [µM]
O=C(Nc1cc(-c2cn(CCNc3c4c(nc5ccccc35)CCCC4)nn2)ccn1)Nc1cccc2c1[C@H]1CCCCN1C2=O | 5
O=C(Nc1cccc(-c2cn(CCNc3c4c(nc5ccccc35)CCCC4)nn2)n1)Nc1cccc2c1C1CCCCN1C2=O (racemic) | > 25

Target: Glycogen synthase kinase-3 (Sus scrofa, UniProt B2LUN4+I6LNT8)
Details: not given

Compound | IC50 [µM]
C#CCOCc1ccnc(NC(=O)Nc2cccc3c2C2CCCCN2C3=O)c1 (racemic) | 0.06
C#CCCc1ccnc(NC(=O)Nc2cccc3c2C2CCCCN2C3=O)c1 (racemic) | 0.015
C#CCN(C)Cc1ccnc(NC(=O)Nc2cccc3c2C2CCCCN2C3=O)c1 (racemic) | 0.011
O=C(Nc1cc(-c2cn(CCNc3c4c(nc5ccccc35)CCCC4)nn2)ccn1)Nc1cccc2c1[C@H]1CCCCN1C2=O | 0.007
O=C(Nc1cccc(-c2cn(CCNc3c4c(nc5ccccc35)CCCC4)nn2)n1)Nc1cccc2c1C1CCCCN1C2=O (racemic) | 4.2

Target: Acetylcholinesterase (Homo sapiens, UniProt P22303)
Sequence (P22303 whole entry): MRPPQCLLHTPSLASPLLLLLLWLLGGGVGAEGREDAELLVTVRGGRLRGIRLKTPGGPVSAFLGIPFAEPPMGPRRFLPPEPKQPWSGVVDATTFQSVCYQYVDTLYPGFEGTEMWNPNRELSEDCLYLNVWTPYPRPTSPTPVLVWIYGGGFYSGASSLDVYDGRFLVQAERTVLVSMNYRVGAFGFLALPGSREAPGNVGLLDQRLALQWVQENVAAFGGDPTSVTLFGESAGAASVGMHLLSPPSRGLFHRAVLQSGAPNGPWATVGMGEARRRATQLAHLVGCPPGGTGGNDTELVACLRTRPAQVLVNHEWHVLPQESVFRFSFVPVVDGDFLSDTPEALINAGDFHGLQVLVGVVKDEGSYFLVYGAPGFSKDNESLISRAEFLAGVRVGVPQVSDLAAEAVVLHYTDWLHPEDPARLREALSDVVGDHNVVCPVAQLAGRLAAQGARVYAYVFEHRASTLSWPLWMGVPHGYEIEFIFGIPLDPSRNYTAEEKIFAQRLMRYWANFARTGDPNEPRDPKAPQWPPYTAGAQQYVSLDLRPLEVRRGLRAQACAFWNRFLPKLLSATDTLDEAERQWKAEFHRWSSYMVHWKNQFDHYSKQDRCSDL
Assay: Inhibition of human recombinant AChE using ATCh as substrate preincubated for 20 mins followed by substrate addition and measured for 3 mins by Ellman method
Details: not given

Compound | IC50 [µM]
O=C(Nc1cc(-c2cn(CCNc3c4c(nc5ccccc35)CCCC4)nn2)ccn1)Nc1cccc2c1[C@H]1CCCCN1C2=O | 0.0095
O=C(Nc1cccc(-c2cn(CCNc3c4c(nc5ccccc35)CCCC4)nn2)n1)Nc1cccc2c1C1CCCCN1C2=O (racemic) | 0.133

— ChEMBL document CHEMBL4390652, “Design, biological evaluation and X-ray crystallography of nanomolar multifunctional ligands targeting simultaneously acetylcholinesterase and glycogen synthase kinase-3” (Eur J Med Chem, 2019)
